Experiment [1] has as its system S. cerevisiae RPL19A-GFP strain, flow cytometry fluorescence, 3 h. Kind of experiment: TOR pathway RPL19A-GFP modulators, concentration series – cell-based, S. cerevisiae, flow cytometry, MLPCN hits, dose response (AID 2740).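 On GFP fluorescence, lower = active: background is signal of the same compound in parental non-GFP s288c yeast.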
Experiment in experiment [2]: as above
To be noted: S. cerevisiae RPL19A-GFP strain, flow cytometry fluorescence, 3 h; at 33 µM (top of the series). (In general: In flow cytometry, cells or beads pass a laser one at a time.)

Each structure is given as a SMILES string. Values joined by “and” are separate entries in the source; they are usually repeats but may differ in a detail not shown here. Identical values can stand only once. Active and inactive are the calls of the source.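 How the source made its calls: active means compounds whose fitted half-maximal concentration for changing the GFP signal is at or below a set limit; inactive means the rest.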

As usually defined, the EC50 is the concentration needed to bring the measured effect to its halfway point. Consider `O=C(Nc1ccc(Cl)cc1)ON=C1CCCC1`, for which, in experiment [1], the EC50 is 10.8 µM. With `COc1cc(/C=C/[N+](=O)[O-])ccc1O`, the concentration for a half-maximal effect (EC50) in experiment [1] was 32.1 µM. On to `Cc1ccc(NC(=O)c2cc(N3C(=O)C=CC3=O)ccc2N2CCOCC2)cc1Cl`, for which the EC50 in experiment [1] was 4.02 µM.

Turning to `O=C(/C=C/c1ccccn1)c1ccc(Br)cc1O`, in experiment [1], the EC50 was 26.8 µM. On to `CN1CCN(C(=O)c2cc(COc3c(F)cccc3F)on2)CC1c1ccccc1` (centres undefined), for which the EC50 in experiment [1] was 8.03 µM. As to `C/C(=N\NC(=O)c1cccc(Br)c1)c1ccccn1`, the EC50 in experiment [1] is 20.8 µM. For `Cc1ccc(NC(=O)c2cc(N3C(=O)C=CC3=O)ccc2Cl)cc1C`, the EC50 in experiment [1] was 7.49 µM.

Regarding `O=[N+]([O-])c1ccc(O)c(/C=N/Nc2ccccn2)c1`, the EC50 in experiment [1] was 16.6 µM. Regarding `COc1ccc(N/N=C(\C#N)C(N)=O)cc1`, the EC50 in experiment [1] is 2.96 µM. `CCOC(=O)c1cc(-c2ccc(/C=C3/C(=O)NC(=O)C(C#N)=C3C)o2)ccc1Cl`: the concentration giving a half-maximal response (EC50) in experiment [1] was 3.35 µM. For `O=C1C=CC(=O)N1c1ccc(N2CCCCC2)cc1`, the EC50 in experiment [1] is 5.05 µM. As to `O=[N+]([O-])c1ccc(S(=O)(=O)c2cccc(C(F)(F)F)c2)nc1`, in experiment [1], the EC50 was 11.8 µM. For the molecule `CC1=NNC(=O)/C1=C\c1cn(-c2ccccc2)nc1-c1cccs1`, the concentration giving a half-maximal response (EC50) in experiment [1] is 3.14 µM. In the case of `CCOC(=O)/C(=C\c1cn(C)c2ccccc12)[N+](=O)[O-]`, the EC50 in experiment [1] is 4.95 µM. As to `O=C(/C=C/c1cccc([N+](=O)[O-])c1)c1ccc([N+](=O)[O-])o1`, in experiment [1], the EC50 is 3.5 µM. On the same count and under the same terms, the figure for `O=C(OCC(=O)N1CCN(C(=O)c2ccco2)CC1)c1cc(-c2ccccc2)nc2ccccc12` is 6.98 µM and 3.89 µM; for `Cc1ccc(/C=C/C(=O)c2ccccc(=O)c2O)c(C)c1` it is 11.3 µM. Take `N/C(Cc1ccc(Cl)cc1)=N\OC(=O)c1ccccc1`: in experiment [1], the EC50 is 8.02 µM. Regarding `O=C1NC(=O)C(=Cc2ccc(-c3ccc(Cl)cc3)o2)C(=O)N1`, the EC50 in experiment [1] was 6.81 µM.

As to `CCCCCCCCn1sccc1=O`, in experiment [1], the EC50 is 11.9 µM. For `Cc1ccc(/C=C2\C(=O)NC(=S)N(c3ccccc3F)C2=O)s1`, in experiment [1], the 50% effective concentration (EC50) is 1.36 µM.

Take `CCn1c(=O)c(C(=O)Nc2nc3ccccc3[nH]2)c(O)c2ccccc21`: the 50% effective concentration (EC50) in experiment [1] was 3.3 µM. As to `CC(C)(C)c1ccc(NC(=O)COC(=O)c2ccc([N+](=O)[O-])s2)cc1`, the EC50 in experiment [1] is 9.71 µM. Turning to `CC(C)(C)C(=O)C(Cl)C(=O)Nc1ccccc1` (centres undefined), the EC50 in experiment [1] was 11.2 µM. For `CCOC(=O)COc1ccc2ccccc2c1/C=C/[N+](=O)[O-]`, in experiment [1], the concentration giving a half-maximal response (EC50) was 5.36 µM. On to `CC(C)(C)n1nc(-c2ccc(F)cc2)c2c(N)ncnc21`, for which the concentration giving a half-maximal response (EC50) in experiment [1] was 0.98 µM.

For the molecule `CC(Oc1ccc(Cl)cc1)C(=O)NNC(=S)NC(=O)c1ccco1` (centres undefined), in experiment [1], the EC50 was 11 µM.

For the molecule `O=C1C=CC(=O)N1c1cccc(-c2ccccc2)c1`, the half-maximal effective concentration (EC50) in experiment [1] was 2.7 µM. As to `O=c1cc(CSc2ccc(Cl)cc2)nc(-c2ccccn2)[nH]1`, the concentration for a half-maximal effect (EC50) in experiment [1] was 12.9 µM.

Take `CC1=NNC(=O)/C1=C\c1cn(-c2ccccc2)nc1-c1ccccc1`: the EC50 in experiment [1] was 11.4 µM. The same measure, in the same setting: the figure for `C#CCOCCOCCOCCNc1nc(N2CCN(C(=O)CCCCCCCCCCNC(=O)[C@H](CCCCN)n3cc(CCO)nn3)CC2)nc(N2CCN(C(=O)CCCCCCCCCCNC(=O)[C@H](CCCCN)n3cc(C[C@@H](C)CC)nn3)CC2)n1` is 10.1 µM. On the same count and under the same terms, the figure for `CC(=O)Nc1ncnc2c1c(-c1ccc(Cl)cc1)nn2C(C)(C)C` is 6.07 µM; for `CC(=O)SC(C[N+](=O)[O-])c1cn(C(C)=O)c2ccccc12` (centres undefined) it is 12.4 µM. Take `O=[N+]([O-])c1cc(Cl)c2cccnc2c1O`: the EC50 in experiment [1] was 13 µM. As for `C#CCOCCOCCOCCNc1nc(N2CCN(C(=O)CCCCCCCCCCNC(=O)[C@@H](CCC(=O)O)n3cc(CCCCCN)nn3)CC2)nc(N2CCN(C(=O)CCCCCCCCCCNC(=O)[C@H](CCCCN)n3cc(C[C@@H](C)CC)nn3)CC2)n1`, the EC50 in experiment [1] is 11 µM. In the case of `O=C(Nc1nc(-c2ccccn2)cs1)c1cc2ccccc2o1`, in experiment [1], the concentration giving a half-maximal response (EC50) is 11.7 µM. Turning to `Cc1ccc(N/N=C(\C#N)C(N)=S)c(C)c1`, in experiment [1], the half-maximal effective concentration (EC50) is 5 µM. For `O=C(CSC1=NS(=O)(=O)c2ccccc21)Nc1ccccc1`, the EC50 in experiment [1] is 5.5 µM.

On to `C#CCOCCOCCOCCNc1nc(N2CCN(C(=O)CCCCCCCCCCNC(=O)[C@H](CCCCN)n3cc(C)nn3)CC2)nc(N2CCN(C(=O)CCCCCCCCCCNC(=O)[C@H](CCCN=C(N)N)n3cc(C[C@@H](C)CC)nn3)CC2)n1`, for which, in experiment [1], the EC50 is 10.7 µM. In the case of `Cc1nn2c(-c3ccncc3)nnc2c2ccccc12`, in experiment [1], the concentration giving a half-maximal response (EC50) is 3.29 µM. Take `COc1ccc(N2C(=O)/C(=C/c3cccs3)C(=O)NC2=S)cc1`: the 50% effective concentration (EC50) in experiment [1] is 7.77 µM.

As for `COc1ccc2c(c1)S/C(=C\C(=O)c1ccncc1)N2C`, the EC50 in experiment [1] is 3.97 µM.

Regarding `Cn1ncc(S(=O)(=O)Cc2ccccc2)c(Cl)c1=O`, in experiment [1], the concentration giving a half-maximal response (EC50) was 14.9 µM. Turning to `CNc1nc(N)c([N+](=O)[O-])c(Nc2cccc(F)c2)n1`, in experiment [1], the EC50 was 7.46 µM. Consider `COc1cccc2sc(Nc3nc(-c4ccccn4)cs3)nc12`, for which, in experiment [1], the concentration for a half-maximal effect (EC50) was 3.82 µM. Consider `Cc1ccc(/C=C2/C(=O)ON=C2c2ccccc2)o1`, for which, in experiment [1], the concentration giving a half-maximal response (EC50) was 11.9 µM. Still for that read-out and setting: the figure for `Nc1ccc(Br)c2c1C(=O)c1ccccc1C2=O` is 3.16 µM; for `COc1ccc([N+](=O)[O-])c(S(=O)(=O)c2ccc(Cl)cc2)n1` it is 13.1 µM. Take `ClC(Cl)(c1nnnn1-c1ccccc1)c1nnnn1-c1ccccc1`: the EC50 in experiment [1] was 4.62 µM. In the case of `COc1cccc2cc(-c3nc4ccccc4o3)c(=O)oc12`, in experiment [1], the EC50 was 1.11 µM. As for `CCOC(=O)c1c(C)oc2c1c(C(c1ccncc1)N1CCOCC1)c(O)c1ccccc12` (centres undefined), in experiment [1], the EC50 is 11.8 µM. Regarding `O=C1C=C(c2ccccc2)C(=O)N1Nc1ccccc1`, the concentration giving a half-maximal response (EC50) in experiment [1] is 3.91 µM.

For the molecule `O=[N+]([O-])c1cc(S(=O)(=O)C(F)(F)F)ccc1Sc1nc2ccccc2s1`, the EC50 in experiment [1] is 14.4 µM.

As for `O=C1NC(=O)N(Cc2ccco2)C(=O)/C1=C/c1ccc(-c2cccc([N+](=O)[O-])c2)o1`, the concentration for a half-maximal effect (EC50) in experiment [1] was 11.2 µM. In the case of `CCCCS(=O)(=O)/C=C\C=C/S(=O)(=O)CCCC`, the 50% effective concentration (EC50) in experiment [1] was 12.5 µM. Still for that read-out and setting: the figure for `C[C@@H]1C[C@@H]([C@H](O)CC2CC(=O)NC(=O)C2)C(=O)[C@@H](C)C1` is 0.644 µM.

Turning to `O=C1NC(=O)N(Cc2ccc(F)cc2)C(=O)/C1=C/c1cccs1`, the EC50 in experiment [1] was 4.65 µM.

Turning to `O=C1c2sc3nc4ccccc4n3c2C(=O)N1c1ccccc1Cl`, the EC50 in experiment [1] is 19 µM. With `CCN1/C(=C/C(C)=C/c2sc3ccccc3[n+]2CC)Sc2ccccc21`, the half-maximal effective concentration (EC50) in experiment [1] was 11.3 µM. For `CC(C)(C)C(=O)NC(=S)NNC(=O)c1sc2ccccc2c1Cl`, the EC50 in experiment [1] is 12.3 µM. For the molecule `Cc1ccc2nc(Cl)c3nnnn3c2c1`, the concentration giving a half-maximal response (EC50) in experiment [1] was 5.33 µM. On to `COc1ccc2c(c1)c1nnc(SC)nc1n2C`, for which the concentration giving a half-maximal response (EC50) in experiment [1] was 0.681 µM. Turning to `O=C(C#Cc1ccccc1)c1cccc([N+](=O)[O-])c1`, the concentration for a half-maximal effect (EC50) in experiment [1] is 7.47 µM. `O=C(Nc1ccc(Cl)cc1Cl)c1cccc(N2C(=O)C=CC2=O)c1`: the EC50 in experiment [1] is 9.64 µM. As for `O=C(OCC(=O)N1CCN(C(=O)c2ccco2)CC1)c1cc(-c2ccc(F)cc2)nc2ccccc12`, the GFP fluorescence, lower = active (kMESF (background-subtracted)) in experiment [2] is 32.3 (inactive). Besides, the EC50 in experiment [1] was 5.05 µM. Turning to `CCc1nc2ccccc2c(=O)n1NC(=O)c1c(O)c2ccccc2n(CC)c1=O`, the EC50 in experiment [1] was 7.44 µM. Consider `Cc1ccc(S(=O)(=O)c2ccc([N+](=O)[O-])cn2)cc1`, for which, in experiment [1], the half-maximal effective concentration (EC50) is 12.9 µM. Take `CCOc1ccc(N/N=C(/C#N)C(N)=O)cc1`: the half-maximal effective concentration (EC50) in experiment [1] was 4.55 µM.

In the case of `O=C1Oc2ccccc2C(=O)/C1=C/c1ccccc1O`, the EC50 in experiment [1] is 11 µM. `O=C(OCC(=O)N1CCN(C(=O)c2ccco2)CC1)c1cc(-c2cccc(Br)c2)nc2ccccc12`: in experiment [1], the half-maximal effective concentration (EC50) is 3.18 µM. With `CCOC(=O)C(C(=O)OCC)C(C(=O)OCC)N1CCOCC1` (centres undefined), the EC50 in experiment [1] was 14.2 µM. Same read-out and setting: the figure for `N/C(Cc1ccc(Cl)cc1Cl)=N\OC(=O)c1cccs1` is 12.9 µM. For `O=C(/C=C/c1cccc(Cl)c1)c1nc2ccccc2[nH]1`, in experiment [1], the EC50 is 4.06 µM.

Values taken from PubChem BioAssay AID2740 (NMMLSC, 2010).
